Measured values taken from patent US4310682A, “Halo-salicylanilide” (priority 1979, dated 1982).

Assays:
Type in all cases: cell-based
[1] = tested on: Escherichia coli NIHJ JC-2; test: MIC, agar medium containing the compound; conditions: bacterium No. 1, 37° C., 4 hours
Method: (§1) In order to test antifungal and bactericidal activity of halo-salicylanilide obtained in above mentioned Examples, following bacteria and fungi are employed.
No. 1 Escherichia coli NIHJ JC-2
(§2) Bacteria No. 1 to No. 4 are respectively cultured in Hart Infusion bouillon medium at 37° C. for 20 hours and resulting medium liquids are employed for said test. Fungi No. 5 to No. 7 are respectively cultured in Sabouraud agar medium and 10^6 cell/ml of cell dispersing liquids obtained from said medium are employed for said test.

[2] = tested on: Pseudomonas aeruqinosa NC-5; test: MIC, agar medium containing the compound; conditions: bacterium No. 2, 37° C., 4 hours
Method: as §1
No. 2 Pseudomonas aeruqinosa NC-5
as §2

[3] = tested on: Staphylococcus aureus FDA-209-P; test: MIC, agar medium containing the compound; conditions: bacterium No. 3, 37° C., 4 hours
Method: as §1
No. 3 Staphylococcus aureus FDA-209-P
as §2

[4] = tested on: Bacillus subtilis PCI-219; test: MIC, agar medium containing the compound; conditions: bacterium No. 4, 37° C., 4 hours
Method: as §1
No. 4 Bacillus subtilis PCI-219
as §2

[5] = tested on: Candida albicans ATCC 10259; test: MIC, Sabouraud agar medium containing the compound; conditions: fungus No. 5, 20° C., 14 days
Method: as §1
No. 5 Candida albicans ATCC 10259
as §2

[6] = tested on: Trichophyton rubrum IFO 9185; test: MIC, Sabouraud agar medium containing the compound; conditions: fungus No. 7, 20° C., 14 days
Method: as §1
No. 7 Trichophyton rubrum IFO 9185
as §2

[7] = tested on: Aspergillus flavus IFO 8558; test: MIC, Sabouraud agar medium containing the compound; conditions: fungus No. 6, 20° C., 14 days
Method: as §1
No. 6 Aspergillus flavus IFO 8558
as §2

[8] = tested on: Candida albicans ATCC 10259; test: Multiplying state after removal to compound-free medium (scanning electron microscope); conditions: first cultured in medium containing the compound, then removed; FIG. 1 and FIG. 2
[9] = tested on: bacteria No. 1 to No. 4 and fungi No. 5 to No. 7; test: Antifungal and bactericidal activity test, overall assessment of Table 8; conditions: referring to Table 8
Method: as §1, §2
Referring now to Table 8, in said Examples the halo-salicylanilides provided have respectively remarkable higher antifungal and bactericidal activity than that of the contrasts proposed and said halo-salicylanilidesare especially effective on bacteria No. 3 and No. 4, and fungi No. 5, No. 6 and No. 7. This testifies that alkyl group of 2'-position of the halo-salicylanilides is significant for the activities of the compound. […] Especially the halo-salicylanilides having fluorine in 5-position are very useful for agricultural medicines.

Compound | MIC (Minimum Inhibitory Concentration) [1] | MIC (Minimum Inhibitory Concentration) [2] | MIC (Minimum Inhibitory Concentration) [3] | MIC (Minimum Inhibitory Concentration) [4] | MIC (Minimum Inhibitory Concentration) [5] | MIC (Minimum Inhibitory Concentration) [6] | MIC (Minimum Inhibitory Concentration) [7] | multiplying state of the fungi after removal to culture medium without the compound [8] | antifungal and bactericidal activity (assessment in words) [9]
5-bromo-2'-methyl-4'-acetylsalicylanilide [compound 11] | > 100 | > 100 | 0.2 | 0.4 | 100 | 0.8 | – | – | –
5-chloro-2'-methyl-4'-bromo chloro salicylanilide [compound 7] | > 100 | > 100 | 0.8 | 0.8 | 100 | 25 | – | – | –
O=C(Nc1ccc(Cl)cc1)c1cc(Br)ccc1O [Contrast No. 1, reference compound] | > 100 | > 100 | – | – | > 100 | 50 | > 100 | – | –
O=C(Nc1ccc(Cl)cc1)c1cc(I)cc(I)c1O [Contrast No. 2, reference compound] | > 100 | > 100 | – | – | 50 | 50 | > 100 | again starts to multiply | –
C=CCCCCCCCCC(=O)O [Contrast No. 3, undecylenic acid, reference compound] | > 100 | – | > 100 | > 100 | – | 50 | 50 | – | –
COC1=CC(=O)C[C@@H](C)[C@]12Oc1c(Cl)c(OC)cc(OC)c1C2=O [Contrast No. 4, griseo fulvin, reference compound] | > 100 | – | > 100 | > 100 | – | 25 | 25 | – | –
Cc1cc(Cl)ccc1NC(=O)c1cc(Br)ccc1O [compound 1, 5-bromo-2'-methyl-4'-chloro salicylanilide] | > 100 | > 100 | 0.8 | 0.8 | 50 | 50 | 50 | – | –
Cc1cc(Br)ccc1NC(=O)c1cc(Cl)ccc1O [compound 2, 5-chloro-2'-methyl-4'-bromo salicyl anilide] | > 100 | > 100 | 0.8 | 0.8 | 50 | 50 | 50 | – | –
CC(=O)Oc1ccc(Cl)cc1C(=O)Nc1ccc(Cl)cc1C [compound 4, 5-chloro-2'-methyl-4' chloro-acetyl salcylanilide] | > 100 | > 100 | 0.1 | 0.2 | 100 | 0.2 | – | – | –
Cc1cc(Br)ccc1NC(=O)c1cc(I)ccc1O [compound 5, 5-iodo-2'-methyl-4'-bromo salicylanilide] | > 100 | – | 0.37 | 0.75 | 3.2 | 3.2 | 3.2 | – | remarkable antifungal and bactericidal activity
CCc1cc(Cl)ccc1NC(=O)c1cc(I)ccc1O [compound 6, 5-iodo-2'-ethyl-4'-chloro salicylanilide] | > 100 | – | 0.75 | 0.75 | 6.3 | 3.2 | 3.2 | – | remarkable antifungal and bactericidal activity
CC(=O)Oc1ccc(Cl)cc1C(=O)Nc1ccc(Br)cc1C [compound 8, 5-chloro-2'-methyl-4'-bromo acetylsalicylanilide] | > 100 | > 100 | 0.8 | 0.8 | 100 | < 0.8 | – | – | –
CC(=O)Oc1ccc(Br)cc1C(=O)Nc1ccc(Cl)cc1C [compound 9, 5-bromo-2'-methyl-4'-chloro acetylsalicylanilide] | > 100 | > 100 | 0.8 | 0.8 | 100 | 25 | – | – | –
Cc1cc(Br)ccc1NC(=O)c1cc(Br)ccc1O [compound 10, 5-bromo-2'-methyl-4'-bromo salicylanilide] | > 100 | > 100 | 0.2 | 0.4 | 100 | 0.8 | – | – | –
CC(=O)Oc1ccc(I)cc1C(=O)Nc1ccc(Cl)cc1C [compound 12, 5-iodo-2'-methyl-4'-chloro acetylsalicylanilide] | > 100 | 100 | 0.8 | 0.8 | 100 | 0.8 | – | – | –
CC(=O)Oc1ccc(I)cc1C(=O)Nc1ccc(Br)cc1C [compound 13, 5-iodo-2'-methyl-4'-bromo acetylsalicylanilide] | > 100 | 100 | 0.2 | 0.4 | 100 | 12.5 | – | – | remarkable antifungal and bactericidal activity
Cc1cc(Cl)ccc1NC(=O)c1cc(F)ccc1O [compound 14, 5-fluoro-2'-methyl-4'-chloro salicylanilide] | > 100 | 100 | 0.4 | 0.4 | 100 | < 0.8 | – | – | –
CC(=O)Oc1ccc(F)cc1C(=O)Nc1ccc(Cl)cc1C [compound 15, 5-fluoro-2'-methyl-4'-chloro acetylsalicylanilide] | > 100 | 100 | 0.4 | 0.4 | 100 | < 0.8 | – | – | –
Cc1cc(Br)ccc1NC(=O)c1cc(F)ccc1O [compound 16, 5-fluoro-2'-methyl-4'-bromo salicylanilide] | > 100 | 100 | 0.4 | 0.4 | 100 | < 0.8 | – | – | –
CC(=O)Oc1ccc(F)cc1C(=O)Nc1ccc(Br)cc1C [compound 17, 5-fluoro-2'-methyl-4'-bromo acetylsalicylanilide] | > 100 | 100 | 0.4 | 0.4 | 100 | < 0.8 | – | – | –
Cc1cc(I)ccc1NC(=O)c1cc(F)ccc1O [compound 18, 5-fluoro-2'-methyl-4'-iodo salicylanilide] | > 100 | 100 | 0.4 | 0.4 | 100 | < 0.8 | – | – | –
CC(=O)Oc1ccc(F)cc1C(=O)Nc1ccc(I)cc1C [compound 19, 5-fluoro-2'-methyl-4'-iodo acetylsalicylanilide] | > 100 | 100 | 0.4 | 0.4 | 100 | < 0.8 | – | – | –
